Assay results published in paper PMC12903857.
Values joined by “and” are separate entries in the source; they are usually repeats but may differ in a detail not shown here. Equal values may be shown once.

Legend:
[1] = biological target: T1, 14-3-3σ (Homo sapiens, UniProt P31947); assay: FA, Kd of 15-mer RAF peptides
T1 sequence (P31947 1-248): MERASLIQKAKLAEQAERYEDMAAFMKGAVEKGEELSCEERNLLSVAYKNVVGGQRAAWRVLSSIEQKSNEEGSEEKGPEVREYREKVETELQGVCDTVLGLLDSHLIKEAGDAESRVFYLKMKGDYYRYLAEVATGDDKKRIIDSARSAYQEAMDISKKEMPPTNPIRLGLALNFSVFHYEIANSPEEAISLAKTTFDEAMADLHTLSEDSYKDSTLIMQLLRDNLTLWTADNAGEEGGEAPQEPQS
Procedure: (§1) Ea ch compound was measured in triplicates, i n two i ndependent experi ments. Fluorescence anisotropy measurements were performed directly and a€er overnight incubaton at room temperature.
(§2) Fluorescence anisotropy measurements were performed a€er overnight incubaton at room temperature .

[2] = tested on: pERK; assay: Lumit immunoassay for pERK levels in HEK293T cells; type: cell-based
[3] = tested on: pERK; assay: Lumit immunoassay for pERK with 14-3-3 C38N mutant; type: cell-based; conditions: HEK293T
[4] = tested on: 80 peptides representing a diverse set of 14-3-3 clients; assay: FA selectivity panel, single point; conditions: 10.5 μM compound, 100 nM client peptides, overnight; hit = change in anisotropy of more than 15 units
Procedure: (§3) concentraton (50 μM, maximum eﬀect) was used.
giving the anisotropy change (ΔAU ) .
sele tme: 0 ms, gain: optmal).

[5] = biological target: T2, 14-3-3σ/C-RAF259 (Homo sapiens, UniProt P31947); assay: FA compound titration follow-up from selectivity panel
Procedure: as §3
giving the anisotropy change (ΔAU ) .
sele tme: 0 ms, gain: optmal).

[6] = biological target: T2, 14-3-3σ/C-RAF259; assay: Fluorescence anisotropy (FA) compound titration; type: binding; conditions: 10 nM C-RAF259-FAM 10-mer, 5 μΜ 14-3-3σ, overnight; read-out: Compound titrations EC50 value C-RAF259
[7] = biological target: T3, 14-3-3σ/C-RAF (Homo sapiens, UniProt P31947)
[8] = biological target: 14-3-3σ/A-RAF (Homo sapiens, UniProt P31947)
[9] = tested on: C-RAF/C-RAF; conditions: with N-RAS Q61L; 100% = DMSO mBU
Procedure: We aimed to study potential effects of the molecular glues on RAF-dimer formation using a NanoBRET assay.
All compound treatments were 24 hours.

[10] = tested on: A-RAF/C-RAF; assay: NanoBRET for heterodimer formation A-RAF/C-RAF
[11] = biological target: T3, 14-3-3σ/C-RAF; assay: cell-based
Target sequence in this assay (P04049 whole entry partner, one chain of several): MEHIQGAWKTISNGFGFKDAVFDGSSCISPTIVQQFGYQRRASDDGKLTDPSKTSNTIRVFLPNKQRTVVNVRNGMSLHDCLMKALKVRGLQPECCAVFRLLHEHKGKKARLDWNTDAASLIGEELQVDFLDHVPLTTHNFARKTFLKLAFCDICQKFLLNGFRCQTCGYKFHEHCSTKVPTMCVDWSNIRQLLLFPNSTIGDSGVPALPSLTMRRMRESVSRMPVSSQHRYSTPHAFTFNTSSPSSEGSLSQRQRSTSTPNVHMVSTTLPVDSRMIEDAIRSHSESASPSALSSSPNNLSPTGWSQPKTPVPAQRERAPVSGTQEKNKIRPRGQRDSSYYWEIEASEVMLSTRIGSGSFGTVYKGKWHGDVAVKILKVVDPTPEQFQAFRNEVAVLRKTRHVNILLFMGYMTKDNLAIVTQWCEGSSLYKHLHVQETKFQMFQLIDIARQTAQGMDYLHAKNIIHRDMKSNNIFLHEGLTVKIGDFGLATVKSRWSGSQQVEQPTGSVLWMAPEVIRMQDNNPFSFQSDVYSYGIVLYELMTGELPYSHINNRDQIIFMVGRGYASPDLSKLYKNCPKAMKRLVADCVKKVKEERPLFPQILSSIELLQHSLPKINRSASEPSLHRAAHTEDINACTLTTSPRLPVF
Procedure: (§4) Stabilization of the interaction with a molecular glue was expected to lead to an increase in the intensity of the BRET signal.
Both cell lines were grown in
All compound treatments were 24 hours.
Brieﬂy, HEK293T cells were

[12] = biological target: 14-3-3σ/KC1A (Homo sapiens, UniProt P31947); assay: FA compound titration follow-up from selectivity panel
Procedure: as §3
giving the anisotropy change (ΔAU ) .
sele tme: 0 ms, gain: optmal).

[13] = biological target: 14-3-3σ/B-RAF (Homo sapiens, UniProt P31947)
[14] = biological target: 14-3-3σ/TSC2 (Homo sapiens, UniProt P31947); assay: FA compound titration follow-up from selectivity panel
Procedure: as §3
giving the anisotropy change (ΔAU ) .
sele tme: 0 ms, gain: optmal).

[15] = tested on: N-RAS Q61L/C-RAF; conditions: HEK293T; 100% = DMSO mBU, 0% = N-RAS/C-RAF R89L
[16] = biological target: 14-3-3σ/TAZ (Homo sapiens, UniProt P31947); assay: FA compound titration follow-up from selectivity panel
Procedure: as §3
giving the anisotropy change (ΔAU ) .
sele tme: 0 ms, gain: optmal).

[17] = biological target: 14-3-3σ/SOS1 (Homo sapiens, UniProt P31947); assay: as above
Procedure: as §3
giving the anisotropy change (ΔAU ) .
sele tme: 0 ms, gain: optmal).

[18] = tested on: B-RAF/C-RAF; assay: NanoBRET for heterodimer formation B-RAF/C-RAF
[19] = biological target: T3, 14-3-3σ/C-RAF; conditions: HEK293T cells, mBU compound / mBU DMSO
Target sequence in this assay (P04049 whole entry partner, one chain of several): as above
Procedure: as §4
Both cell lines were grown in
All compound treatments were 24 hours.
Brieﬂy, HEK293T cells were

[20] = biological target: T1, 14-3-3σ; assay: Intact mass spectrometry assay, apo (no peptide); type: binding; set-up: full-length for mass spectrometry and fluorescence anisotropy assays; made in house; host or cells: E. coli Rosetta 2(DE3)pLysS, pPROEX HTb vector; conditions: 1 μM compound, 100 nM 14-3-3σ
[21] = biological target: 14-3-3σ/A-RAF214 (Homo sapiens, UniProt P31947); assay: Intact mass spectrometry assay with A-RAF214 peptide; conditions: 1 μM compound, 100 nM 14-3-3σ, 16 µM peptide
Procedure: as §1, §2

[22] = biological target: T4, 14-3-3σ/B-RAF365 (Homo sapiens, UniProt P31947); assay: Intact mass spectrometry assay with B-RAF365 peptide; type: binding; conditions: 1 μM compound, 100 nM 14-3-3σ, 5 µM peptide
T4 construct: full-length for mass spectrometry and fluorescence anisotropy assays; made in house; host or cells: E. coli Rosetta 2(DE3)pLysS (14-3-3σ); peptides from Elim Biopharmaceuticals

[23] = biological target: T2, 14-3-3σ/C-RAF259; assay: Intact mass spectrometry assay with C-RAF259 phospho-peptide; type: binding; set-up: full-length for mass spectrometry and fluorescence anisotropy assays; made in house; host or cells: E. coli Rosetta 2(DE3)pLysS (14-3-3σ); peptides from Elim Biopharmaceuticals; conditions: 1 μM compound, 100 nM 14-3-3σ, 18 µM peptide
[24] = biological target: T2, 14-3-3σ/C-RAF259; assay: FA protein titration, C-RAF259 peptide; conditions: appKd DMSO / appKd compound
Procedure: The following peptdes were used in the FA selectvity panel:
SOS1 pS1161: FITC-Ahx-PRRRPE{pS}APAESS-CONH2, TSC2 pS1254: FAM-Ahx-LY K S L { p S } V PA A S TA K-CONH2, ARHG2 pS886: FAM-Ahx-PVDPRRR{pS}LPAGDAL-CONH2.
Mass spectrometry dose response assays were performed on a Waters Acquity UPLC/ Xevo G2-XS Q-To f m a s s
samples prior to applicaton on the mass spectrometer. For 19-point MS dose responses, 50 mM compound stocks
transferred in the assay plates.
Assay buﬀer was TRIS (10 mM, pH 8.0) and ﬁnal volume per well was 50
μL, with ﬁnal top concentraton of compounds dose response series at 1 mM.
24 μL of sample were needed for the tme-course
(BSA; Sigma-Aldrich). Final DMSO in the assay was less than 1%. Diluton series of 14-3-3 proteins or compounds
dispensed in the assay plates. […] Ea ch compound was measured in triplicates, i n two i ndependent experi ments. Fluorescence anisotropy measurements were performed directly and a€er overnight incubaton at room temperature. The high
(10 nM) and DMSO or compound (100 µM). Fluorescence anisotropy measurements were performed a€er overnight incubaton at room temperature .

[25] = 14-3-3σ covalently bound to compound, Replicate 1 and 2

`CSCC[C@H](NC(=O)[C@H](Cc1c[nH]cn1)NC(=O)[C@@H](NC(=O)[C@H](CC(N)=O)NC(=O)[C@@H]1CCCN1C(=O)[C@@H](NC(=O)[C@H](COP(=O)(O)O)NC(=O)[C@@H](NC(=O)[C@H](CO)NC(=O)[C@H](CCCNC(=N)N)NC(=O)[C@H](CCC(N)=O)NC(=O)[C@H](CCCNC(=N)N)NC(=O)[C@H](CCC(N)=O)NC(=O)[C@H](CO)NC(=O)c1ccc2c(c1)C(=O)OC21c2ccc(O)cc2Oc2cc(O)ccc21)[C@@H](C)O)[C@@H](C)O)C(C)C)C(=O)N[C@H](C(N)=O)C(C)C` [C-RAF 15-mer, 5-FAM-SQRQRST{pS}TPNVHMV-CONH2] gave a Kd [1] of 8 to 10 µM.

`CC(=O)Nc1cccc(-n2c(=O)n(C3CC3)c(=O)c3c(Nc4ccc(I)cc4F)n(C)c(=O)c(C)c32)c1` [Trametinib, reference compound] was tested, and the “time taken to modulate the pathway” value ([2]; pERK modulation) was 3 h and the “effect on pERK with the C38N mutant” value [3] was “same effect”.

With `O=C(CCl)NCC1CCN(S(=O)(=O)c2ccc(Br)cc2)CC1` [Compound 22] the “clients emerged as hits” value [4] was “six”.

`O=C(CCl)NCC1CCN(S(=O)(=O)c2ccc(I)cc2)CC1` [Compound 23] was tested, and the EC50 [5] was 5.1 µM, the IC50 ([2]; Homo sapiens, HEK-293T, HEK293T, 14-3-3σ and C-RAF transfected, 24 h, EGF stimulation) was 4.4 µM and the “effect on pERK with the C38N mutant” value [3] was “No effect”. The EC50 [6] was 1 ± 0.5 µM, the “clients emerged as hits” value [4] was “four” and the “ka, single replicates, C-RAF 12-mer” value [7, 25] was 1.12e+07 M⁻¹ s⁻¹ and 1.09e+07 M⁻¹ s⁻¹. The “kd, single replicates, C-RAF 12-mer” value [7, 25] was 0.0131 s⁻¹ and 0.0133 s⁻¹, the “affinity increase, C-RAF” value ([7]; vs binary interaction) was 2000 fold and the “ka, single replicates, A-RAF 12-mer” value [8, 25] was 1.25e+07 M⁻¹ s⁻¹ and 1.02e+07 M⁻¹ s⁻¹. For the same compound, the “kd, single replicates, A-RAF 12-mer” value [8, 25] was 0.0189 s⁻¹ and 0.0196 s⁻¹, the “affinity increase, A-RAF” value ([8]; vs binary interaction) was 1000 fold and the “decrease in C-RAF homodimer formation” value [9] was 47%. The “decrease of the A-RAF/C-RAF interaction” value [10] was 23%, the EC50 [11] was 180 nM and the EC50 [12] was 38.1 µM. The “ka, single replicates, B-RAF 12-mer” value [13, 25] was 9.53e+06 M⁻¹ s⁻¹ and 8.53e+06 M⁻¹ s⁻¹, the “kd, single replicates, B-RAF 12-mer” value [13, 25] was 0.0572 s⁻¹ and 0.0569 s⁻¹ and the “affinity increase, B-RAF” value ([13]; vs binary interaction) was 400 fold. For the same compound, the EC50 [14] was 19.2 µM, the “reduction of the N-RAS Q61L/C-RAF interaction” value [15] was 75% and the EC50 [16] was 11.7 µM. The EC50 [17] was 24.2 µM and the “decrease of the B-RAF/C-RAF dimer” value [18] was 15%.

In the case of `O=C(CCl)NCC1CCN(S(=O)(=O)Cc2cccc(F)c2)CC1` [Compound 8], the “14-3-3/C-RAF NanoBRET fold stab.” value [19] is reported as “No increase”, the “% bound, APO, 1h” value ([20]; 1 h) is reported as 0% and the “% bound, APO, 8h” value ([20]; 8 h) is reported as 0%. For the same compound, the “% bound, APO, 16h” value ([20]; 16 h) was 1.9%, the “% bound, APO, 24h” value ([20]; 24 h) was 2.9% and the “% bound, A-RAF214 (15mer), 1h” value ([21]; 1 h) was 0%. The “% bound, A-RAF214 (15mer), 8h” value ([21]; 8 h) was 0%, the “% bound, A-RAF214 (15mer), 16h” value ([21]; 16 h) was 0% and the “% bound, A-RAF214 (15mer), 24h” value ([21]; 24 h) was 0%. The “effect on phosphorylation of ERK” value ([2]; HEK293T, 24 h, EGF stimulation, 23 at 10 μM) was “No effect”, the “% bound, B-RAF365 (10mer), 1h” value ([22]; 1 h) was 0% and the “% bound, B-RAF365 (15mer), 1h” value ([22]; 1 h) was 0%. The “% bound, B-RAF365 (10mer), 8h” value ([22]; 8 h) was 0%, the “% bound, B-RAF365 (15mer), 8h” value ([22]; 8 h) was 0% and the “% bound, B-RAF365 (10mer), 16h” value ([22]; 16 h) was 2.5%. For the same compound, the “% bound, B-RAF365 (15mer), 16h” value ([22]; 16 h) was 0.9%, the “% bound, B-RAF365 (10mer), 24h” value ([22]; 24 h) was 2.5% and the “% bound, B-RAF365 (15mer), 24h” value ([22]; 24 h) was 3.8%. For the same compound, the EC50 [6] was greater than 1000 µM, the “% bound, C-RAF259 (11mer), 1h” value ([23]; 1 h) was 2.9% and 0% and the “% bound, C-RAF259 (15mer), 1h” value ([23]; 1 h) was 0%. For the same compound, the “% bound, C-RAF259 (11mer), 8h” value ([23]; 8 h) was 5.6% and 0%, the “% bound, C-RAF259 (15mer), 8h” value ([23]; 8 h) was 0% and the “% bound, C-RAF259 (11mer), 16h” value ([23]; 16 h) was 5.6%. The “% bound, C-RAF259 (15mer), 16h” value ([23]; 16 h) was 0%, the “% bound, C-RAF259 (11mer), 24h” value ([23]; 24 h) was 5.6% and 2.9% and the “% bound, C-RAF259 (15mer), 24h” value ([23]; 24 h) was 0%. For the same compound, the “reduction of the N-RAS Q61L/C-RAF interaction” value [15] was “did not affect”, the “Fold stabilization (100 µM compound), C-RAF259 (10mer)” value [24] was “lacked an effect” and the “Fold stabilization (100 µM compound), C-RAF259 (10mer)” value ([24]; listed as (8)) was 1 fold.

`CC[C@H](C)[C@H](NC(=O)[C@H](CCCNC(=N)N)NC(=O)[C@H](CCC(N)=O)NC(=O)[C@H](CC(C)C)NC(=O)c1ccc2c(c1)C(=O)OC21c2ccc(O)cc2Oc2cc(O)ccc21)C(=O)N[C@@H](CCCNC(=N)N)C(=O)N[C@@H](CO)C(=O)N[C@H](C(=O)N[C@@H](COP(=O)(O)O)C(=O)N[C@H](C(=O)N1CCC[C@H]1C(=O)N[C@@H](CC(N)=O)C(=O)N[C@H](C(=O)N[C@@H](Cc1c[nH]cn1)C(=O)N[C@@H](CCSC)C(=O)N[C@H](C(N)=O)C(C)C)C(C)C)[C@@H](C)O)[C@@H](C)O` [A-RAF 15-mer] gave a Kd [1] of 8 to 10 µM.
